Measured values from publication doi:10.1101/2024.08.13.607785v1 (biorxiv, 2024).
Like-named read-outs stand apart in the source and are kept apart here.

Assays:
Experiment in all cases: biochemical
Design in all cases: species or system human cell line lysate
[1] = molecular target: Isoform 2 of Protein-tyrosine kinase 2-beta ; PTK2B ; Q14289-2 (Homo sapiens, UniProt Q14289)
[2] = molecular target: Tyrosine-protein kinase Mer ; MERTK ; Q12866 (Homo sapiens, UniProt Q12866)
[3] = molecular target: MAP kinase-activated protein kinase 2 ; MAPKAPK2 ; P49137 (Homo sapiens, UniProt P49137)
Sequence of MAP kinase-activated protein kinase 2 ; MAPKAPK2 ; P49137 (P49137 whole entry): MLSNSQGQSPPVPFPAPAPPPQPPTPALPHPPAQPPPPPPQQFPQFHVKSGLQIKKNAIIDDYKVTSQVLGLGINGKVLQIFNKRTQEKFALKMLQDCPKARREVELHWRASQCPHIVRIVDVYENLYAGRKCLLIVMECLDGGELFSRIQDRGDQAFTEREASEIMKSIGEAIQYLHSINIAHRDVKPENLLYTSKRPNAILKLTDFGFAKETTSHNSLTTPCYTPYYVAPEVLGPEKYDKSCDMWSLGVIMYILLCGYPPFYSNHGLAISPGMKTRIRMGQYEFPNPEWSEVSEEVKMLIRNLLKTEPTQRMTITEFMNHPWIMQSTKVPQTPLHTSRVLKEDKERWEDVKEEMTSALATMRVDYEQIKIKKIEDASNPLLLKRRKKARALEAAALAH

[4] = molecular target: Serine/threonine-protein kinase PDIK1L ; PDIK1L ; Q8N165 (Homo sapiens, UniProt Q8N165)
[5] = molecular target: Phosphatidylinositol 3-kinase catalytic subunit type 3 ; PIK3C3 ; Q8NEB9 (Homo sapiens, UniProt Q8NEB9)
Sequence of Phosphatidylinositol 3-kinase catalytic subunit type 3 ; PIK3C3 ; Q8NEB9 (Q8NEB9 whole entry, one chain of several): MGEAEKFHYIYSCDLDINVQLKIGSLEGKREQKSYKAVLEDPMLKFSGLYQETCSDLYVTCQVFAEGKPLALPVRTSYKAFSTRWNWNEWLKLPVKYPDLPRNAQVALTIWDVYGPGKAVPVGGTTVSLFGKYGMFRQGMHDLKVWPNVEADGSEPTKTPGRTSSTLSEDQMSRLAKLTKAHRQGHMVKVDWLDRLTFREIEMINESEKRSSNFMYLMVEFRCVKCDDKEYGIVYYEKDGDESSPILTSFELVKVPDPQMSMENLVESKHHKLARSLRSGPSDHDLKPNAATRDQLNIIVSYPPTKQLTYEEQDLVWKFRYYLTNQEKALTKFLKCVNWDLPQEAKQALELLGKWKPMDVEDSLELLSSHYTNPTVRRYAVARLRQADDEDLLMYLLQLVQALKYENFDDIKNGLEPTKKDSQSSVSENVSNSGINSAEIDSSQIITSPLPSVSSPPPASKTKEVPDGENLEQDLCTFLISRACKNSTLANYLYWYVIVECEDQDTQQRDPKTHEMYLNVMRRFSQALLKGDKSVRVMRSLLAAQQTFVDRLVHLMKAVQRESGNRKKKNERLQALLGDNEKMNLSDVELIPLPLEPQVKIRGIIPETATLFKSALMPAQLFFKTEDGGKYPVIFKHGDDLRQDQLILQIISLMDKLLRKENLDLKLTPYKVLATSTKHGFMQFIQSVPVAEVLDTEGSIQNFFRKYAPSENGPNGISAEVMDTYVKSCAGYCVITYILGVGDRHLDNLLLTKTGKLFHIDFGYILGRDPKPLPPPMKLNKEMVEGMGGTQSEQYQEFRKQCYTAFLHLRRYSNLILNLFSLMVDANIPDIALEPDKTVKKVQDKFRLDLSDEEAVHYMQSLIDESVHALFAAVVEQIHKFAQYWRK

[6] = molecular target: STE20-like serine/threonine-protein kinase ; SLK ; Q9H2G2 (Homo sapiens, UniProt Q9H2G2)
Sequence of STE20-like serine/threonine-protein kinase ; SLK ; Q9H2G2 (Q9H2G2 whole entry, one chain of several): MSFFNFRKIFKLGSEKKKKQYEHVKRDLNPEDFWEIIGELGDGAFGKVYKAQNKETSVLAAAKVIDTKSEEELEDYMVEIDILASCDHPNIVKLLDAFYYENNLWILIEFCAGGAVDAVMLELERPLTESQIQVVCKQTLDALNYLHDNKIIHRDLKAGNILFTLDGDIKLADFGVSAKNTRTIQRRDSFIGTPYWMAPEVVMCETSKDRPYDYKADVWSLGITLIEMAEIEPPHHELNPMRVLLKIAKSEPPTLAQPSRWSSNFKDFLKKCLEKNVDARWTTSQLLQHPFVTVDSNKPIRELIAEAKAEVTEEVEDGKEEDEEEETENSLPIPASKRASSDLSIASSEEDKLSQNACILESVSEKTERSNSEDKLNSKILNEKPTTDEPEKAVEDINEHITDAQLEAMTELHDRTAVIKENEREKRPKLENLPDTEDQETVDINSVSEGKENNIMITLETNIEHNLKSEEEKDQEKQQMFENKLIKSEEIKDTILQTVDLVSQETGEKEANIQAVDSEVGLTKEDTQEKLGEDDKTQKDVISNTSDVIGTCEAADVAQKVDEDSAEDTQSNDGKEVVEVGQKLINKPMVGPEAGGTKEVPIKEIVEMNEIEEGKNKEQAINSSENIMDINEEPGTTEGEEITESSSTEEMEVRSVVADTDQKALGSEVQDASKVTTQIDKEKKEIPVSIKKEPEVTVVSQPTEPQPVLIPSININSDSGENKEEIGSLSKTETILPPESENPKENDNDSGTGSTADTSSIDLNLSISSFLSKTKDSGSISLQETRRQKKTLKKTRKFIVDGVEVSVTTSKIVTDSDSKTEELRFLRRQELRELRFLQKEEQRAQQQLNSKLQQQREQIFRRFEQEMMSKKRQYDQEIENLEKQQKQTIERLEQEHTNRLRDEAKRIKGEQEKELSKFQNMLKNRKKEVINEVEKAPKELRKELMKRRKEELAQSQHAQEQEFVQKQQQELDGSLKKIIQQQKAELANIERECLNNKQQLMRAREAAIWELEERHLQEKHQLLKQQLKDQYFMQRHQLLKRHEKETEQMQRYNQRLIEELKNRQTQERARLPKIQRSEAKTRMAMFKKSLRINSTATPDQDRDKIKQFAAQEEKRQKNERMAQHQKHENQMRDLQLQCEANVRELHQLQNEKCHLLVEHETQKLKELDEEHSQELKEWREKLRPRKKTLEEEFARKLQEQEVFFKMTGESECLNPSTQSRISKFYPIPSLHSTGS

[7] = molecular target: SNF-related serine/threonine-protein kinase ; SNRK ; Q9NRH2 (Homo sapiens, UniProt Q9NRH2)
Sequence of SNF-related serine/threonine-protein kinase ; SNRK ; Q9NRH2 (Q9NRH2 whole entry, one chain of several): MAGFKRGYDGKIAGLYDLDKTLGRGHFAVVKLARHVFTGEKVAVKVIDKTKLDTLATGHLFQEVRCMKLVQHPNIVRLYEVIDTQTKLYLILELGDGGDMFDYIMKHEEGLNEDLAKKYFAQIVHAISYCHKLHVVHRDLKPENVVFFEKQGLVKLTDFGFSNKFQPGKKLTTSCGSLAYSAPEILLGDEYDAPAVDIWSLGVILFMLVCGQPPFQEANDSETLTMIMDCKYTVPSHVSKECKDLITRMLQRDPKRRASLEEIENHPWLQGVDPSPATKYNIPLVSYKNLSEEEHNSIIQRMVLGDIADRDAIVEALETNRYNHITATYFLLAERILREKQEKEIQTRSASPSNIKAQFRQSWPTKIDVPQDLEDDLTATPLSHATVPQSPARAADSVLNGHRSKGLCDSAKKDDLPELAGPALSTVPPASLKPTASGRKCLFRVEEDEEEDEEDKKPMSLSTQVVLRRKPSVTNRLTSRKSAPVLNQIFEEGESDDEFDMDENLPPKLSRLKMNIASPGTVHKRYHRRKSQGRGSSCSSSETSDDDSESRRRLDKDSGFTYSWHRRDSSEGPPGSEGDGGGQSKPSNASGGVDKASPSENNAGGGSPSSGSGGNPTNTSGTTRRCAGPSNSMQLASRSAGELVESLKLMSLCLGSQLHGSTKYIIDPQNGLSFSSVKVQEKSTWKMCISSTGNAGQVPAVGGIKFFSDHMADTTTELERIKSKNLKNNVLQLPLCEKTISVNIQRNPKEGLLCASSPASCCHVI

[8] = molecular target: Serine/threonine-protein kinase D1 ; PRKD1 ; Q15139 (Homo sapiens, UniProt Q15139)
[9] = molecular target: Mitogen-activated protein kinase kinase kinase kinase 1 ; MAP4K1 ; Q92918 (Homo sapiens, UniProt Q92918)
[10] = molecular target: Serine/threonine-protein kinase PAK 5 ; PAK5 ; Q9P286 (Homo sapiens, UniProt Q9P286)
Sequence of Serine/threonine-protein kinase PAK 5 ; PAK5 ; Q9P286 (Q9P286 whole entry, one chain of several): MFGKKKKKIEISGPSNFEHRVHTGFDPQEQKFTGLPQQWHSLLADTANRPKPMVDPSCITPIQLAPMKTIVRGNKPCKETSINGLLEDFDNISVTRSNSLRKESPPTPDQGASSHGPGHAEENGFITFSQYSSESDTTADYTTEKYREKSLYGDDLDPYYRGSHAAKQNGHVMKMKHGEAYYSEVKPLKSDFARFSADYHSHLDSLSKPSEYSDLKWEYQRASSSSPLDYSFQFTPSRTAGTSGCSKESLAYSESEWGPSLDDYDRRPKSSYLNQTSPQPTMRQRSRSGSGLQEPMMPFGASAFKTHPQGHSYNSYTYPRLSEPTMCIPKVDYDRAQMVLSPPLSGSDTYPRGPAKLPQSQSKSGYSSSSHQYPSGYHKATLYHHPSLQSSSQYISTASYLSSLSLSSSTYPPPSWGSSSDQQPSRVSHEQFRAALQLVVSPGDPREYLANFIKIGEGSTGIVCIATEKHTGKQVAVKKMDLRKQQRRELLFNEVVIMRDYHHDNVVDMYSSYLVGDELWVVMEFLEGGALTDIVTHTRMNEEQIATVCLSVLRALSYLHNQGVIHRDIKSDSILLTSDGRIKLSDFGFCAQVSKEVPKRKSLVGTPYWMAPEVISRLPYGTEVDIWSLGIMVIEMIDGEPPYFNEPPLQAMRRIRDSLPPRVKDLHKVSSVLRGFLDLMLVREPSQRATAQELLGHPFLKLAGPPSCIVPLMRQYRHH

[11] = molecular target: Aurora kinase A ; AURKA ; O14965 (Homo sapiens, UniProt O14965)
Sequence of Aurora kinase A ; AURKA ; O14965 (O14965 whole entry): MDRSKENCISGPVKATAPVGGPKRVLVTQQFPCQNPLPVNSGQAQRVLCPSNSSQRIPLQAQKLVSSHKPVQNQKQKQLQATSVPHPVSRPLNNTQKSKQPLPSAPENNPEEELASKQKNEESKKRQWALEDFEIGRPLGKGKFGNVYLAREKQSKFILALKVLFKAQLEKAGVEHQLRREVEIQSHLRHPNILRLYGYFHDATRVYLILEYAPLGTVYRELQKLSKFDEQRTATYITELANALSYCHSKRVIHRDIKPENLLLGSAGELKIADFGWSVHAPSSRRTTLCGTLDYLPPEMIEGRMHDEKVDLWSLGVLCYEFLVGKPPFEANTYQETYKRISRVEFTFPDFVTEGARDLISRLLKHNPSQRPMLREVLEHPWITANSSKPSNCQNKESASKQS

[12] = molecular target: Serine/threonine-protein kinase 16 ; STK16 ; O75716 (Homo sapiens, UniProt O75716)
[13] = molecular target: Isoform 2 of Tyrosine-protein kinase Lyn ; LYN ; P07948-2 (Homo sapiens, UniProt P07948)
Sequence of Isoform 2 of Tyrosine-protein kinase Lyn ; LYN ; P07948-2 (P07948 whole entry, canonical isoform): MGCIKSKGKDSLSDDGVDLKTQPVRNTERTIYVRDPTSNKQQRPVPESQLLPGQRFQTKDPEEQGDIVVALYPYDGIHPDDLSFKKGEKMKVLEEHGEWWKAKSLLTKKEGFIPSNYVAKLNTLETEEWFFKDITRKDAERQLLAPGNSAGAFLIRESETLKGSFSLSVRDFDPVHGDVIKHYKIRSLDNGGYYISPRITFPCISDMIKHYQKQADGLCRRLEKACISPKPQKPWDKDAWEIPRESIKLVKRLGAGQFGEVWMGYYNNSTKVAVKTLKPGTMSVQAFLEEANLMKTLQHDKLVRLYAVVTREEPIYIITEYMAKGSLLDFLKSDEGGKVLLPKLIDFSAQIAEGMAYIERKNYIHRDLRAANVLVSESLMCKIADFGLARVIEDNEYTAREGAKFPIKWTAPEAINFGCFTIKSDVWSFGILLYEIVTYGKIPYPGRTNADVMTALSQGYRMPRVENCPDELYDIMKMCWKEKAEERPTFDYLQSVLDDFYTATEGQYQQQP

[14] = molecular target: Mitogen-activated protein kinase kinase kinase 11 ; MAP3K11 ; Q16584 (Homo sapiens, UniProt Q16584)
[15] = molecular target: Isoform Beta-II of Protein kinase C beta type ; PRKCB ; P05771-2 (Homo sapiens, UniProt P05771)
[16] = molecular target: Mitogen-activated protein kinase kinase kinase 3 ; MAP3K3 ; Q99759 (Homo sapiens, UniProt Q99759)
[17] = molecular target: Serine/threonine-protein kinase 10 ; STK10 ; O94804 (Homo sapiens, UniProt O94804)
[18] = molecular target: Interferon-induced, double-stranded RNA-activated protein kinase ; EIF2AK2 ; P19525 (Homo sapiens, UniProt P19525)
[19] = molecular target: Rho-associated protein kinase 1 ; ROCK1 ; Q13464 (Homo sapiens, UniProt Q13464)
[20] = molecular target: Calcium/calmodulin-dependent protein kinase type II subunit beta ; CAMK2B ; Q13554 (Homo sapiens, UniProt Q13554)
[21] = molecular target: Serine/threonine-protein kinase D3 ; PRKD3 ; O94806 (Homo sapiens, UniProt O94806)
[22] = molecular target: Calcium/calmodulin-dependent protein kinase type II subunit alpha ; CAMK2A ; Q9UQM7 (Homo sapiens, UniProt Q9UQM7)
[23] = molecular target: Serine/threonine-protein kinase SIK2 ; SIK2 ; Q9H0K1 (Homo sapiens, UniProt Q9H0K1)
[24] = read-out: BAY-1143572 (10 µM) / %Intensity relative to DMSO
[25] = read-out: BAY-1251152 (10 µM) / %Intensity relative to DMSO

Question: COc1cc(F)ccc1-c1ncnc(Nc2cccc(C[S@](C)(=N)=O)c2)n1 [BAY-1143572] was tested. Which remaining activity at 10 µM [1, 24] did it give?
Answer: Its remaining activity at 10 µM is 100%.

Question: What about the remaining activity at 10 µM [2, 24] of the same compound?
Answer: The remaining activity at 10 µM was 86.5%.

Question: And the remaining activity at 10 µM [3, 24]?
Answer: The remaining activity at 10 µM was 128%.

Question: And the remaining activity at 10 µM [4, 24]?
Answer: The remaining activity at 10 µM was 119%.

Question: What about the remaining activity at 10 µM [5, 24] of the same compound?
Answer: The remaining activity at 10 µM was 119%.

Question: What about the remaining activity at 10 µM [6, 24] of the same compound?
Answer: The remaining activity at 10 µM was 97.7%.

Question: And the remaining activity at 10 µM [7, 24]?
Answer: The remaining activity at 10 µM was 191%.

Question: And the remaining activity at 10 µM [8, 24]?
Answer: Its remaining activity at 10 µM is 155%.

Question: And the remaining activity at 10 µM [9, 24]?
Answer: Its remaining activity at 10 µM is 101%.

Question: And the remaining activity at 10 µM [10, 24]?
Answer: The remaining activity at 10 µM was 138%.

Question: What about the remaining activity at 10 µM [11, 24] of the same compound?
Answer: Its remaining activity at 10 µM is 112%.

Question: What about the remaining activity at 10 µM [12, 24] of the same compound?
Answer: Its remaining activity at 10 µM is 64.2%.

Question: And the remaining activity at 10 µM [13, 24]?
Answer: Its remaining activity at 10 µM is 102%.

Question: And the remaining activity at 10 µM [14, 24]?
Answer: Its remaining activity at 10 µM is 105%.

Question: And the remaining activity at 10 µM [15, 24]?
Answer: The remaining activity at 10 µM was 121%.

Question: What about the remaining activity at 10 µM [16, 24] of the same compound?
Answer: Its remaining activity at 10 µM is 120%.

Question: And the remaining activity at 10 µM [17, 24]?
Answer: The remaining activity at 10 µM was 91.3%.

Question: What about the remaining activity at 10 µM [18, 24] of the same compound?
Answer: Its remaining activity at 10 µM is 80%.

Question: What about the remaining activity at 10 µM [19, 24] of the same compound?
Answer: Its remaining activity at 10 µM is 114%.

Question: And the remaining activity at 10 µM [20, 24]?
Answer: The remaining activity at 10 µM was 105%.

Question: And the remaining activity at 10 µM [21, 24]?
Answer: The remaining activity at 10 µM was 108%.

Question: What about the remaining activity at 10 µM [22, 24] of the same compound?
Answer: The remaining activity at 10 µM was 130%.

Question: What about the remaining activity at 10 µM [23, 24] of the same compound?
Answer: The remaining activity at 10 µM was 102%.

Question: With COc1cc(F)ccc1-c1cc(Nc2cc(CS(C)(=N)=O)ccn2)ncc1F (stereo not shown) [BAY-1251152] as the compound, how does the remaining activity at 10 µM [1, 25] read?
Answer: The remaining activity at 10 µM was 98.1%.

Question: What about the remaining activity at 10 µM [2, 25] of the same compound?
Answer: Its remaining activity at 10 µM is 52.5%.

Question: And the remaining activity at 10 µM [3, 25]?
Answer: Its remaining activity at 10 µM is 119%.

Question: And the remaining activity at 10 µM [4, 25]?
Answer: Its remaining activity at 10 µM is 129%.

Question: And the remaining activity at 10 µM [5, 25]?
Answer: Its remaining activity at 10 µM is 124%.

Question: And the remaining activity at 10 µM [6, 25]?
Answer: Its remaining activity at 10 µM is 53.8%.

Question: And the remaining activity at 10 µM [7, 25]?
Answer: Its remaining activity at 10 µM is 147%.

Question: What about the remaining activity at 10 µM [8, 25] of the same compound?
Answer: Its remaining activity at 10 µM is 154%.

Question: And the remaining activity at 10 µM [9, 25]?
Answer: The remaining activity at 10 µM was 71.6%.

Question: And the remaining activity at 10 µM [10, 25]?
Answer: Its remaining activity at 10 µM is 143%.

Question: And the remaining activity at 10 µM [11, 25]?
Answer: The remaining activity at 10 µM was 98.6%.

Question: And the remaining activity at 10 µM [12, 25]?
Answer: Its remaining activity at 10 µM is 61.5%.

Question: What about the remaining activity at 10 µM [13, 25] of the same compound?
Answer: The remaining activity at 10 µM was 107%.

Question: What about the remaining activity at 10 µM [14, 25] of the same compound?
Answer: Its remaining activity at 10 µM is 81%.

Question: And the remaining activity at 10 µM [15, 25]?
Answer: Its remaining activity at 10 µM is 119%.

Question: And the remaining activity at 10 µM [16, 25]?
Answer: Its remaining activity at 10 µM is 114%.

Question: And the remaining activity at 10 µM [17, 25]?
Answer: Its remaining activity at 10 µM is 74.5%.

Question: What about the remaining activity at 10 µM [18, 25] of the same compound?
Answer: The remaining activity at 10 µM was 74.4%.

Question: What about the remaining activity at 10 µM [19, 25] of the same compound?
Answer: The remaining activity at 10 µM was 110%.

Question: What about the remaining activity at 10 µM [20, 25] of the same compound?
Answer: Its remaining activity at 10 µM is 98.2%.

Question: What about the remaining activity at 10 µM [21, 25] of the same compound?
Answer: Its remaining activity at 10 µM is 102%.

Question: And the remaining activity at 10 µM [22, 25]?
Answer: The remaining activity at 10 µM was 115%.

Question: And the remaining activity at 10 µM [23, 25]?
Answer: Its remaining activity at 10 µM is 106%.
